Results reported in patent publication US6868343B1, “Interactions between substances and surfaces that are made up of amphiphilic molecules” (NIMBUS Biotechnologie GmbH, priority 1998, dated 2005).

Columns and labels:
[1] = Membrane-water distribution by HPLC on solid-supported egg lecithin bilayer (column A1); type: physicochemical; conditions: column A1, pH 7.4, 23° C., calculated from retention time via calibration curve; read-out: logDcal-PC, pH 7.4
Source text: A natural mixture of egg lecithin and 0.03 mole % fluorescence marker 1-hexadecanoyl-2-(1-pyrenedecanoyl)-sn-glycero-3-phosphocholine is suspended in chloroform and the solvent completely removed in vacuo. The lipids are subsequently dispersed in the aqueous buffer (pH 7.4) and small, unilamellar vesicles are produced by ultrasonic treatment. By mixing with spherical, porous silicate structures (silicate gel with 10 μm sphere diameter and 400 nm pore size) at temperatures higher than the Tm of the lipids, the corresponding solid-supported lipid bilayer is obtained by the spontaneous fusion of the vesicles on the silicate surface. […]
For determining the dead time t0 in the selected system, 5 μl of a 5 mM potassium iodide solution is injected into buffer A. In the case of the HPLC column A1 in reproducible manner a t0 of 0.64 min is measured and for column A2 t0=0.58 min. […]
The quantities of compound to be injected are determined on the one hand by its adsorption tendency on the stationary phase and on the other by the detectability of the compound. As a rule most reference compounds can be detected using spectroscopic methods (here UV/V is spectroscopy at 210 nm). The measured retention times tR are directly correlated with the octanol/water partition coefficient using a prior art equation system. […]
In the present example logD cal-PC, pH 7.4 is determined.

[2] = Partition coefficient between solid-supported membrane C (DEPC) and aqueous compartment, UV/Vis at 304 nm; type: physicochemical; conditions: pH 7.4, tetracaine 25 μm, buffer A
Source text: The process for determining lipid binding constants with the aid of solid, biocompatible surfaces can also be used for pharmaceuticals. […] For an analyzing the partition coefficient of this pharmaceutical between the lipid and water phases, as described in example 1, porous silicate structures are coated with a charge-neutral membrane of 99.97 mole % zwitterionic lecithin 1,2-dielaidoyl-sn-3-glycero-3-phosphocholine (DEPC) and 0.03 mole % fluorescence marker 1-hexadecanoyl-2-(-pyrenedecanoyl)-sn-glycero-3-phosphocholine (hereinafter called membrane C).
The active agent tetracaine to be analyzed is placed in double sample form in aqueous solution (buffer A) in a constant concentration of 25 μm and mixed with different quantities of membrane C (concentration range of the lipid 5*10^−5−2*10^−3 mole/l). […] The free active agent concentration in the supernatant material can be rapidly determined in the case of the UV-active compound tetracaine with the aid of UV/Vis spectroscopy (detection at 304 nm). Alternatively the remaining lipid-free supernatant materials can be analyzed using chromatographic methods (HPLC, gas chromatography, etc.). […]
The partition coefficient found for tetracaine between the solid-supported membrane C and the aqueous compartment at the physiologically relevant pH-value 7.4 is 1.4. The binding constants are calculated according to standard procedures.

CC(=O)CC(c1ccccc1)c1c(O)c2ccccc2oc1=O (centres unmarked) [Warfarin, 3-(-acetonylbenzyl)-4-hydroxycoumarin]
chromatographic logD [1]: 1.1

CCCCNc1ccc(C(=O)OCCN(C)C)cc1 [tetracaine]
partition coefficient between solid-supported membrane C and aqueous compartment [2]: 1.4
